For 16 compounds, MIC results are on record in ChEMBL document CHEMBL1128371, “Synthesis and structure-activity relationships of side-chain-substituted analogs of the allylamine antimycotic terbinafine lacking the central amino function” (1995).

Molecules are shown by their SMILES. Values after ≈ are worked out from the molar mass of the structure shown.

In experiment [1] the test system is Aspergillus fumigatus. In words: In vitro antifungal activity against Aspergillus fumigatus. The experiment is classed as functional.
The subject of experiment [2] is Candida albicans. Put plainly: In vitro antifungal activity against Candida albicans 124. The experiment is classed as functional.
Experiment [3] deals with Candida parapsilosis. In words: In vitro antifungal activity against Candida parapsilosis 39. The experiment is classed as functional. The following applies: Lodderomyces parapsilosis.
For experiment [4], the system named is Microsporum canis. Put plainly: In vitro antifungal activity against Microsporum canis. The experiment is classed as functional.
Experiment [5] concerns Sporothrix schenckii. Put plainly: In vitro antifungal activity against Sporothrix schenck ii. The experiment is classed as functional.
Experiment [6] concerns Trichophyton benhamiae. In words: In vitro antifungal activity against Trichophyton mentagrophytes. The experiment is classed as functional, Arthroderma benhamiae.

`CNC(=O)C(C)(C)C#C/C=C/CC(C)Cc1cccc2ccccc12` (stereo not given): the MIC in experiment [1] was > 100 µg/mL; in experiment [2], > 100 µg/mL; in experiment [3], > 100 µg/mL; in experiment [4], 1.6 µg/mL (≈ 4.8 µM); in experiment [5], > 100 µg/mL; in experiment [6], 0.4 µg/mL (≈ 1.2 µM).

On to `CC(C/C=C/C#CC(C)(C)N(C)C)Cc1cccc2ccccc12` (stereo not given), for which the MIC in experiment [1] worked out at 12.5 µg/mL (≈ 39.1 µM); in experiment [2], 50 µg/mL (≈ 156 µM); in experiment [3], 6.25 µg/mL (≈ 19.6 µM); in experiment [4], 0.2 µg/mL (≈ 0.626 µM); in experiment [5] it was 3.1 µg/mL (≈ 9.7 µM); in experiment [6], 0.1 µg/mL (≈ 0.313 µM).

`COC(=O)C(C)(C)C#C/C=C/CC(C)Cc1cccc2ccccc12` (stereo not given): the MIC in experiment [1] is > 100 µg/mL; in experiment [2], > 100 µg/mL; in experiment [3] it was > 100 µg/mL; in experiment [4], 0.8 µg/mL (≈ 2.39 µM); in experiment [5], > 100 µg/mL; in experiment [6], 0.1 µg/mL (≈ 0.299 µM).

In the case of `CC(C/C=C/C#CC(C)(C)C#N)Cc1cccc2ccccc12` (stereo not given), the MIC in experiment [1] was > 100 µg/mL; in experiment [2], > 100 µg/mL; in experiment [3] it was > 100 µg/mL; in experiment [4], 12.5 µg/mL (≈ 41.5 µM); in experiment [5] it was > 100 µg/mL; in experiment [6] it was 0.4 µg/mL (≈ 1.33 µM).

On to `CC(C/C=C/C#CC(C)(C)C(=O)O)Cc1cccc2ccccc12` (stereo not given), for which the MIC in experiment [1], in experiment [2], in experiment [3], in experiment [4], in experiment [5] and in experiment [6] was > 100 µg/mL each time.

For `CC(=O)NC(C)(C)C#C/C=C/CC(C)Cc1cccc2ccccc12` (stereo not given), the MIC in experiment [1], in experiment [2], in experiment [3], in experiment [4], in experiment [5] and in experiment [6] was > 50 µg/mL throughout.

Take `CC(C/C=C/C#CC(C)(C)N)Cc1cccc2ccccc12` (stereo not given): the MIC is 25 µg/mL (≈ 85.8 µM) in experiment [1]; > 100 µg/mL in experiment [2]; > 100 µg/mL in experiment [3]; 3.1 µg/mL (≈ 10.6 µM) in experiment [4]; 12.5 µg/mL (≈ 42.9 µM) in experiment [5]; 1.6 µg/mL (≈ 5.49 µM) in experiment [6].

`CC(C/C=C/C#CC(C)(C)N(C)c1ccccc1)Cc1cccc2ccccc12` (stereo not given): the MIC in experiment [1], in experiment [2], in experiment [3], in experiment [4], in experiment [5] and in experiment [6] was > 100 µg/mL each time.

Consider `CC(C/C=C/C#CC(C)(C)O)Cc1cccc2ccccc12` (stereo not given), for which the MIC in experiment [1] was > 100 µg/mL; in experiment [2], > 100 µg/mL; in experiment [3], > 100 µg/mL; in experiment [4], > 100 µg/mL; in experiment [5] it was > 100 µg/mL; in experiment [6], 3.1 µg/mL (≈ 10.6 µM).

Turning to `CN(C/C=C/c1ccccc1)Cc1cccc2ccccc12` [NAFTIFINE], the MIC turned out to be 12.5 µg/mL (≈ 43.5 µM) in experiment [1]; 1.6 µg/mL (≈ 5.57 µM) in experiment [3]; 0.1 µg/mL (≈ 0.348 µM) in experiment [4]; 1.6 µg/mL (≈ 5.57 µM) in experiment [5]; 0.05 µg/mL (≈ 0.174 µM) in experiment [6].

For `CC(C/C=C/C#CC(C)(C)CN)Cc1cccc2ccccc12` (stereo not given), the minimal inhibitory concentration (MIC) in experiment [1] was 50 µg/mL (≈ 164 µM); in experiment [2], > 50 µg/mL; in experiment [3] it was > 50 µg/mL; in experiment [4] it was 25 µg/mL (≈ 81.8 µM); in experiment [5], 25 µg/mL (≈ 81.8 µM); in experiment [6] it was 6.25 µg/mL (≈ 20.5 µM).

`CC(C/C=C/C#CC(C)(C)[N+](C)(C)C)Cc1cccc2ccccc12` (stereo not given): the MIC in experiment [1] is > 100 µg/mL; in experiment [2], 25 µg/mL; in experiment [3], 100 µg/mL; in experiment [4] it was > 100 µg/mL; in experiment [5] it was 12.5 µg/mL; in experiment [6] it was > 100 µg/mL.

As to `CC(C/C=C/C#CC(C)(C)C(N)=O)Cc1cccc2ccccc12` (stereo not given), the MIC in experiment [1], in experiment [2], in experiment [3], in experiment [4], in experiment [5] and in experiment [6] was > 100 µg/mL in each case.

Consider `CC(C/C=C/C#CC(C)(C)CO)Cc1cccc2ccccc12` (stereo not given), for which the MIC in experiment [1] was > 100 µg/mL; in experiment [2], > 100 µg/mL; in experiment [3], > 100 µg/mL; in experiment [4], 100 µg/mL (≈ 326 µM); in experiment [5], > 100 µg/mL; in experiment [6] it was 3.1 µg/mL (≈ 10.1 µM).

Consider `CC(C/C=C/C#CC(C)(C)C)Cc1cccc2ccccc12` (stereo not given), for which the MIC is > 100 µg/mL in experiment [1]; > 100 µg/mL in experiment [2]; > 100 µg/mL in experiment [3]; 3.1 µg/mL (≈ 10.7 µM) in experiment [4]; > 100 µg/mL in experiment [5]; 0.4 µg/mL (≈ 1.38 µM) in experiment [6].

Regarding `CN(C/C=C/C#CC(C)(C)C)Cc1cccc2ccccc12` [TERBINAFINE], the MIC in experiment [1] amounted to 0.8 µg/mL (≈ 2.75 µM); in experiment [2], 25 µg/mL (≈ 85.8 µM); in experiment [3], 0.8 µg/mL (≈ 2.75 µM); in experiment [4], 0.006 µg/mL (≈ 0.0206 µM); in experiment [5], 0.4 µg/mL (≈ 1.37 µM); in experiment [6], 0.003 µg/mL (≈ 0.0103 µM).

The term MIC denotes the smallest concentration in the dilution series that meets the test's criterion for growth inhibition. Read a high MIC as a less susceptible organism.
